Source: patent publication US9924717B2, “Molecules having pesticidal utility, and intermediates, compositions, and processes, related thereto” (Dow AgroSciences LLC, priority 2016, dated 2018)
Read-outs that look alike come from different tables or passages of the source.

How the values were obtained:
[1] = test system: Beet Armyworm (Spodoptera exigua, LAPHEG) (BAW); test: Bioassays on Beet Armyworm (BAW), 128-well diet tray assay; format: in vivo; settings: for mortality at 5 µg/cm2: 168 h, diet tray, second instar larvae, five to seven days, read-out: Percent control (or mortality) BAW; for pest or weed control at 50 µg/cm2: Table ABC rating, Beet Armyworm
Procedure: (§1) Example A: Bioassays on Beet Armyworm (Spodoptera exigua, LAPHEG) (“BAW”), Corn Earworm (Helicoverpa zea, Helize) (“CEW”), and Cabbage Looper (Trichoplusia ni, TRIPNI) (“CL”)
(§2) Certain molecules disclosed in this document were tested against BAW, CEW, and CL using procedures described in the following examples. In the reporting of the results, the “BAW, CEW, & CL Rating Table” was used (See Table Section).
Bioassays on BAW were conducted using a 128-well diet tray assay. one to five second instar BAW larvae were placed in each well (3 mL) of the diet tray that had been previously filled with 1 mL of artificial diet to which 50 μg/cm^2 of the test molecule (dissolved in 50 μL of 90:10 acetone-water mixture) had been applied (to each of eight wells) and then allowed to dry. Trays were covered with a clear self-adhesive cover and held at 25° C., 14:10 light-dark for five to seven days. Percent mortality was recorded for the larvae in each well; activity in the eight wells was then averaged. The results are indicated in the table entitled “Table ABC: Biological Results” (See Table Section).
(§3) Bioassays on BAW and CL were conducted according to the procedures outlined in Example A: Bioassays on Beet Armyworm (“BAW”) and Cabbage Looper (“CL”) using the indicated concentrations.

[2] = test system: Cabbage Looper (Trichoplusia ni, TRIPNI) (CL); test: Bioassays on Cabbage Looper (CL), 128-well diet tray assay; format: in vivo; settings: for mortality at 5 µg/cm2: 168 h, diet tray, second instar larvae, five to seven days, read-out: Percent control (or mortality) CL; for pest or weed control at 50 µg/cm2: Table ABC rating, Cabbage Looper
Procedure: as §1, §2
Bioassays on CL were conducted using a 128-well diet tray assay. one to five second instar CL larvae were placed in each well (3 mL) of the diet tray that had been previously filled with 1 mL of artificial diet to which 50 μg/cm^2 of the test molecule (dissolved in 50 μL of 90:10 acetone-water mixture) had been applied (to each of eight wells) and then allowed to dry. Trays were covered with a clear self-adhesive cover and held at 25° C., 14:10 light-dark for five to seven days. Percent mortality was recorded for the larvae in each well; activity in the eight wells was then averaged. The results are indicated in the table entitled “Table ABC: Biological Results” (See Table Section).
as §3

[3] = 5 μg/cm^2 (first BAW/CL column pair)
[4] = 5 μg/cm^2 as printed (second BAW/CL column pair)

SMILES	mortality at 5 µg/cm2 [1, 3]	mortality at 5 µg/cm2 [1, 4]	pest or weed control at 50 µg/cm2 [1]	mortality at 5 µg/cm2 [2, 3]	mortality at 5 µg/cm2 [2, 4]	pest or weed control at 50 µg/cm2 [2]
O=C(NCC(F)(F)F)c1ccc(/C(F)=C/C(c2cc(Cl)c(Cl)c(Cl)c2)C(F)(F)F)cc1C(F)(F)F (stereo not shown) [F1, (Z)-4-(1,4,4,4-tetrafluoro-3-(3,4,5-trichlorophenyl)but-1-en-1-yl)-N-(2,2,2-trifluoroethyl)-2-(trifluoromethyl)benzamide]	100%	100%	50 to 100%	100%	100%	50 to 100%
CC(NC(=O)c1ccc(/C(F)=C/C(c2cc(Cl)c(Cl)c(Cl)c2)C(F)(F)F)cc1C(F)(F)F)C(F)(F)F (stereo not shown) [F2, (Z)-4-(1,4,4,4-Tetrafluoro-3-(3,4,5-trichlorophenyl)but-1-en-1-yl)-2-(trifluoromethyl)-N-(1,1,1-trifluoropropan-2-yl)benzamide]			50 to 100%			50 to 100%
O=C(NC1CCC(F)(F)CC1)c1ccc(/C(F)=C/C(c2cc(Cl)c(Cl)c(Cl)c2)C(F)(F)F)cc1C(F)(F)F (stereo not shown) [F4, (Z)—N-(4,4-Difluorocyclohexyl)-4-(1,4,4,4-tetrafluoro-3-(3,4,5-trichlorophenyl)but-1-en-1-yl)-2-(trifluoromethyl)benzamide]			50 to 100%			50 to 100%
O=C(c1ccc(/C(F)=C/C(c2cc(Cl)c(Cl)c(Cl)c2)C(F)(F)F)cc1Br)N1CCCC1 (stereo not shown) [F5, (Z)-(2-Bromo-4-(1,4,4,4-tetrafluoro-3-(3,4,5-trichlorophenyl)but-1-en-1-yl)phenyl)(pyrrolidin-1-yl)methanone]			50 to 100%			50 to 100%
O=C(c1ccc(/C(F)=C/C(c2cc(Cl)c(Cl)c(Cl)c2)C(F)(F)F)cc1C(F)(F)F)N1CCCC1 (stereo not shown) [F6, (Z)-Pyrrolidin-1-yl(4-(1,4,4,4-tetrafluoro-3-(3,4,5-trichlorophenyl)but-1-en-1-yl)-2-(trifluoromethyl)phenyl) methanone]			50 to 100%			50 to 100%
Cc1ccc([C@@H](C)NC(=O)c2ccc(/C(F)=C/C(c3cc(Cl)c(Cl)c(Cl)c3)C(F)(F)F)cc2C(F)(F)F)cc1 (stereo partly drawn) [F8, 4-((Z)-1,4,4,4-Tetrafluoro-3-(3,4,5-trichlorophenyl)but-1-en-1-yl)-N—((R)-1-(p-tolyl)ethyl)-2-(trifluoromethyl)benzamide]			50 to 100%			50 to 100%
O=C(NC1CCC(F)(F)CC1)c1ccc(/C(F)=C/C(c2cc(Cl)c(Cl)c(Cl)c2)C(F)(F)F)cc1Cl (stereo not shown) [F9, (Z)-2-Chloro-N-(4,4-difluorocyclohexyl)-4-(1,4,4,4-tetrafluoro-3-(3,4,5-trichlorophenyl)but-1-en-1-yl)benzamide]			50 to 100%			50 to 100%
O=C(NC1CCC(F)(F)CC1)c1ccc(/C(F)=C/C(c2cc(Cl)c(Cl)c(Cl)c2)C(F)(F)F)cc1Br (stereo not shown) [F10, (Z)-2-Bromo-N-(4,4-difluorocyclohexyl)-4-(1,4,4,4-tetrafluoro-3-(3,4,5-trichlorophenyl)but-1-en-1-yl)benzamide]			50 to 100%			50 to 100%
O=C(NC1CCCC(F)(F)C1)c1ccc(/C(F)=C/C(c2cc(Cl)c(Cl)c(Cl)c2)C(F)(F)F)cc1C(F)(F)F (stereo not shown) [F13, (Z)—N-(3,3-Difluorocyclohexyl)-4-(1,4,4,4-tetrafluoro-3-(3,4,5-trichlorophenyl)but-1-en-1-yl)-2-(trifluoromethyl)benzamide]			50 to 100%			50 to 100%
COc1cccc([C@@H](C)NC(=O)c2ccc(/C(F)=C/C(c3cc(Cl)c(Cl)c(Cl)c3)C(F)(F)F)cc2C(F)(F)F)c1 (stereo partly drawn) [F14, N—((R)-1-(3-Methoxyphenyl)ethyl)-4-((Z)-1,4,4,4-tetrafluoro-3-(3,4,5-trichlorophenyl)but-1-en-1-yl)-2-(trifluoromethyl)benzamide]			50 to 100%			50 to 100%
NC(=O)c1ccc(/C(F)=C/C(c2cc(Cl)c(Cl)c(Cl)c2)C(F)(F)F)cc1C(F)(F)F (stereo not shown) [F17, (Z)-4-(1,4,4,4-Tetrafluoro-3-(3,4,5-trichlorophenyl)but-1-en-1-yl)-2-(trifluoromethyl)benzamide]			50 to 100%			50 to 100%
CN(C)/C=N/C(=O)c1ccc(/C(F)=C/C(c2cc(Cl)c(Cl)c(Cl)c2)C(F)(F)F)cc1C(F)(F)F (stereo not shown) [F18, (E)-N-((dimethylamino)methylene)-4-((Z)-1,4,4,4-tetrafluoro-3-(3,4,5-trichlorophenyl)but-1-en-1-yl)-2-(trifluoromethyl)benzamide]			50 to 100%			50 to 100%
O=CNC(=O)c1ccc(/C(F)=C/C(c2cc(Cl)c(Cl)c(Cl)c2)C(F)(F)F)cc1C(F)(F)F (stereo not shown) [F20, (Z)—N-Formyl-4-(1,4,4,4-tetrafluoro-3-(3,4,5-trichlorophenyl)but-1-en-1-yl)-2-(trifluoromethyl)benzamide]			50 to 100%			50 to 100%
O=C(NC1CC1)c1ccc(/C(F)=C/C(c2ccc(Cl)c(Cl)c2)C(F)(F)F)cc1C(F)(F)F (stereo not shown) [F35, (Z)—N-Cyclopropyl-4-(3-(3,4-dichlorophenyl)-1,4,4,4-tetrafluorobut-1-en-1-yl)-2-(trifluoromethyl)benzamide]			50 to 100%			50 to 100%
CC(NC(=O)c1ccc(/C(F)=C/C(c2cc(Br)c(Cl)c(Br)c2)C(F)(F)F)cc1C(F)(F)F)C(F)(F)F (stereo not shown) [F36, 4-((Z)-3-(3,5-Dibromo-4-chlorophenyl)-1,4,4,4-tetrafluorobut-1-en-1-yl)-2-(trifluoromethyl)-N-(1,1,1-trifluoropropan-2-yl)benzamide]			50 to 100%			50 to 100%
Cc1cc(C(/C=C(\F)c2ccc(C(=O)NC3CC3)c(C(F)(F)F)c2)C(F)(F)F)cc(C)c1Cl (stereo not shown) [F37, (Z)-4-(3-(4-Chloro-3,5-dimethylphenyl)-1,4,4,4-tetrafluorobut-1-en-1-yl)-N-cyclopropyl-2-(trifluoromethyl)benzamide]			50 to 100%			50 to 100%
CC(NC(=O)c1ccc(/C(F)=C/C(c2cc(Cl)c(Br)c(Cl)c2)C(F)(F)F)cc1C(F)(F)F)C(F)(F)F (stereo not shown) [F38, 4-((Z)-3-(4-Bromo-3,5-dichlorophenyl)-1,4,4,4-tetrafluorobut-1-en-1-yl)-2-(trifluoromethyl)-N-(1,1,1-trifluoropropan-2-yl)benzamide]			50 to 100%			50 to 100%
Cc1cc(/C(F)=C/C(c2cc(Cl)c(Cl)c(Cl)c2)C(F)(F)F)ccc1C(=O)NCC(F)(F)F (stereo not shown) [F39, (Z)-2-Methyl-4-(1,4,4,4-tetrafluoro-3-(3,4,5-trichlorophenyl)but-1-en-1-yl)-N-(2,2,2-trifluoroethyl)benzamide]	33%	27%	50 to 100%	100%	100%	50 to 100%
O=C(NCc1ccnc(Cl)c1)c1ccc(/C(F)=C/C(c2cc(Cl)c(Cl)c(Cl)c2)C(F)(F)F)cc1C(F)(F)F (stereo not shown) [F47, (Z)—N-((2-Chloropyridin-4-yl)methyl)-4-(1,4,4,4-tetrafluoro-3-(3,4,5-trichlorophenyl)but-1-en-1-yl)-2-(trifluoromethyl)benzamide]			50 to 100%			50 to 100%
C[C@H](CNCC(F)(F)F)NC(=O)c1ccc(/C(F)=C/C(c2cc(Cl)c(Cl)c(Cl)c2)C(F)(F)F)cc1C(F)(F)F (stereo partly drawn) [F61, 4-((Z)-1,4,4,4-Tetrafluoro-3-(3,4,5-trichlorophenyl)but-1-en-1-yl)-N—((R)-1-((2,2,2-trifluoroethyl)amino)propan-2-yl)-2-(trifluoromethyl)benzamide]			50 to 100%			50 to 100%
N#CC1(NC(=O)c2ccc(/C(F)=C/C(c3cc(Cl)c(Cl)c(Cl)c3)C(F)(F)F)cc2C(F)(F)F)CC1 (stereo not shown) [F62, (Z)—N-(1-Cyanocyclopropyl)-4-(1,4,4,4-tetrafluoro-3-(3,4,5-trichlorophenyl)but-1-en-1-yl)-2-(trifluoromethyl)benzamide]			50 to 100%			50 to 100%
O=C(NC1CC(F)(F)C1)c1ccc(/C(F)=C/C(c2ccc(F)c(Cl)c2)C(F)(F)F)cc1C(F)(F)F (stereo not shown) [F63, (Z)-4-(3-(3-Chloro-4-fluorophenyl)-1,4,4,4-tetrafluorobut-1-en-1-yl)-N-(3,3-difluorocyclobutyl)-2-(trifluoromethyl)benzamide]			50 to 100%			50 to 100%
